Results published in patent US20140287931A1, “METHODS AND COMPOSITIONS FOR PREDICTING RESISTANCE TO ANTICANCER TREATMENT” (Stichting het Nederlands Kanker Instituut - Antoni van …, priority 2011, published 2014).
“Also recorded” adds a separate entry of the source. Where two headings read alike, the source gives them in different places.

How the values were obtained:
[1] = system: SKBR3 breast cancer cells; assay: shRNA bar code screen in SKBR3 breast cancer cells; format: cell-based
[2] = system: H3122 cells; assay: Colony formation assay in H3122 cells with or without shRNA knockdown; format: cell-based, human; conditions: for sensitivity to ALK inhibitors after restoration of Med12: H3122 MED12 knockdown cells (shMED12_TRC#3, #5) plus mouse Med12 cDNA; for sensitivity to ALK inhibitors after restoration of Med12 / sensitivity to ALK inhibitors after restoration of SMARCE1: 300 nM Crizotinib or 2.5 nM NVP-TAE684; for sensitivity to ALK inhibitors after restoration of SMARCE1: H3122 SMARCE1 knockdown cells plus SMARCE1-ND; for resistance to ALK inhibitors on suppression of ARID1A or SMARCE1, colony formation: H3122 expressing independent shARID1A or shSMARCE1 vectors; for resistance to ALK inhibitors on suppression of ARID1A or SMARCE1, colony formation / resistance to ALK inhibitors on suppression of MED12, colony formation / resistance to ALK inhibitors, colony formation: 300 nM Crizotinib or 2.5 nM NVP-TAE684, 4 weeks; for resistance to ALK inhibitors on suppression of MED12, colony formation: H3122 expressing independent shMED12 vectors (pRS #3; pLKO TRC#2, #3, #5); for resistance to ALK inhibitors, colony formation: H3122 expressing library shMED12#1, shMED12#2, shARID1A or shSMARCE1
[3] = system: phospho-AKT; assay: Western blotting of phospho-AKT in H3122 cells; format: cell-based, human; conditions: H3122 shSMARCE1 cells versus controls; 20 nM NVP-TAE684, 24 hours
Protocol: (B) SMARCE1^KD cells have elevated phospho-AKT levels in EML4-ALK cells. H3122 cells expressing controls (pRS or shGFP) or shSMARCE1 vectors were gown in the absence or presence of 20 nM NVP-TAE684 for 24 hours and the cell lysates were harvested for western blotting analysis. (C) MED12^KD cells have elevated phospho-AKT levels in EGFR mutant cells. PC9 cells expressing controls (pRS or shGFP) or shSMARCE1 vectors were gown in the absence or presence of 25 nM Gefitinib for 8 hours and the cell lysates were harvested for western blotting analysis.
Given that loss of MED2 or SMARCE1 causes resistance to multiple tyrosine kinase inhibitors in NSCLC cell lines, Applicants asked whether the activity of downstream components of receptor tyrosine kinase signaling is altered. AKT is a key downstream component and its phosphorylation status positively correlates with its activation that can be determined by specific antibodies against the phosphorylated form of AKT. 1-13122 cells were infected with two independent controls shRNA vectors or shRNAs targeting either MED12 or SMARCE1 and confirmed loss of MED112 or SMARCE1 protein by immunoblotting (FIGS. 15A and B). The cells were also treated of left untreated with the ALK inhibitor NVP-TAE684, to address the activation status of AKT in the presence or absence of the inhibitor. […]

[4] = system: human NSCLC cell lines that harbor EML4-ALK translocations; conditions: cited from earlier work
[5] = system: DAB2IP mRNA; assay: DAB2IP knockdown by qRT-PCR in PC9 cells; format: cell-based, human
Protocol: QRT-PCR assays were carried out to measure mRNA levels of genes using 7500 Fast Real-Time PCR System (Applied Biosystems). Total RNA was isolated using Trizol (Invitrogen) and 1 μg of total RNA was used for cDNA synthesis using superscrpipt 11 reverse transcriptase (Invitrogen) and random hexamer primers (Invitrogen). Relative mRNA levels of each gene shown were normalized to the expression of the house keeping gene GAPDH. The sequences of the primers for assays using SYBR® Green master mix (Roche) are listed below (h, human: m, mouse).

[6] = system: HCC 1954 breast cancer cells; assay: shRNA bar code screen in HCC 1954 breast cancer cells; format: cell-based
[7] = system: PC9 cells (EGFRdelE746-A750); format: cell-based, human
Protocol: (§1) Single cell suspensions of the lung cancer cell lines were seeded into 6-well plates (2×10^4 cells/well) and cultured both in the absence and presence of the ALK inhibitors. At the endpoints of colony formation assays, cells were fixed with formaldehyde, stained with crystal violet (0,1% w/v) and photographed. All relevant assays were performed independently at least three times. All knockdown and overexpression experiments were done by retroviral or lentiviral infections.
(§2) Subclones of each NSCLC cell line expressing the murine ecotropic receptor were generated and used for all experiments shown. Retroviral infections were performed using Phoenix cells as producers of retroviral supernatants using 2.5-3 μg of plasmid DNA as described (http://www(dot)stanford(dot)edu/group/nolan/retroviralsystems/phx(dot)html). […] For transfections of Phoenix cells, Applicants seeded 1.0×10^6 cells in a 6-well dish in the morning and transfected the cells 6-8 hours later. Cells were refreshed the next day in the morning and afternoon. Viral supernatant was harvested the day thereafter for infections of the target cells. […] Infected NSCLC cells were selected for successful retroviral integration using 2 μg/ml of puromycin.

[8] = system: EBC-1 (MET-amplified) cells; conditions: 200 nM Crizotinib; for sensitivity to MET inhibitor after restoration of SMARCE1: EBC-1 SMARCE1-knockdown cells plus SMARCE1-ND
Protocol: as §1, §2

[9] = system: H1993 (MET-amplified) cells; conditions: 200 nM Crizotinib; for sensitivity to MET inhibitor after restoration of SMARCE1: H1993 SMARCE1-knockdown cells plus SMARCE1-ND; for resistance to MET inhibitor on suppression of ARID1A: H1993 expressing shARID1A #1 and #2, 4 weeks
[10] = system: T47D breast cancer cells; assay: Colony formation assay in T47D cells with ARID1A knockdown; format: cell-based; conditions: 10 and 20 nM AZD8055, 4 weeks
Protocol: (§3) (B) Validation of independent shRNAs (in pLKO vector) targeting ARID1A in T47D breast cancer cells. TIhe functional phenotypes of non-overlapping shARID1A vectors are indicated by the colony formation assay in 10 and 20 nM small molecule mTOR inhibitor AZD8055. The cells were fixed, stained and photographed after 2 weeks (untreated) or 4 weeks (inhibitor treatment). Ectopic expression of a mutant of cyclin DI (pBpDITA) served as a control in the experiment. (C) Validation of independent shRNAs (in pLKO vector) targeting ARID1A in MCF7 breast cancer cells. The functional phenotypes of non-overlapping shARIDJA vectors are indicated by the colony formation assay in 20 and 40 nM small molecule mTOR inhibitor AZD8055. The cells were fixed, stained and photographed after 2 weeks (untreated) or 4 weeks (inhibitor treatment). (D). Quantification of ARID1A mRNA levels by QRT-PCR after knockdown of ARID1A in MCF7 breast cancer cells.

[11] = system: MCF7 breast cancer cells; assay: Colony formation assay in MCF7 cells with ARID1A knockdown; format: cell-based; conditions: 20 and 40 nM AZD8055, 4 weeks
Protocol: as §3

[12] = system: BT474 breast cancer cells; assay: Colony formation assay in BT474 cells with ARID1A knockdown; format: cell-based, human; conditions: 25 nM AZD8055 or 2 ug/ml trastuzumab, 4 weeks
Text: The cells were fixed, stained and photographed after 2 weeks (untreated) or 4 weeks (inhibitor treatment).

[13] = system: PI3K pathway members (p473-AKT, p235/236-S6RP); assay: Immunoblot of PI3K pathway members in BT474 cells; format: cell-based, human; conditions: BT474 expressing three independent shARID1A vectors versus shctrl; increasing amounts of AZD8055, three hours
Protocol: BT474 cells stably expressing either shctrl, shTSC2 or three independent shARID1A vectors were exposed to increasing amounts of the mTOR inhibitor AZD8055. After three hours, cell lysates were prepared and PI3K pathway members were immunoblotted.

Molecule: Oc1cccc(-c2nc(N3CCOCC3)c3oc4ncccc4c3n2)c1 [PI-103]
- resistance on knockdown of ARID1A (SMARCF1) [1]: conferred resistance

Molecule: COc1cc(N2CCC(N3CCN(C)CC3)CC2)ccc1Nc1ncc(Cl)c(Nc2ccccc2S(=O)(=O)C(C)C)n1 [NVP-TAE684]
- sensitivity to ALK inhibitors after restoration of Med12 [2]: re-sensitizes
- sensitivity to ALK inhibitors after restoration of SMARCE1 [2]: re-sensitizes
- resistance to ALK inhibitors on suppression of ARID1A or SMARCE1, colony formation [2]: confers drug resistance
- resistance to ALK inhibitors on suppression of MED12, colony formation [2]: confers drug resistance
- resistance to ALK inhibitors, colony formation [2]: confer resistance
- phosphorylated AKT levels in the presence of inhibitor [3]: maintained higher levels
- inhibition of EML4-ALK NSCLC cell lines [4]: potently inhibit

Molecule: shDAB2IP#5: lentiviral pLKO shRNA vector from the TRC library targeting DAB2IP, sequence GCACATCACTAACCACTACCT (pLKO lentiviral vector)
- knockdown of DAB2IP [5]: failed to induce a knockdown

Molecule: Cn1c(=O)n(-c2ccc(C(C)(C)C#N)cc2)c2c3cc(-c4cnc5ccccc5c4)ccc3ncc21 [NVPBEZ235]
- resistance on knockdown of ARID1A [6]: conferred resistance

Molecule: shDAB2IP#2: lentiviral pLKO shRNA vector from the TRC library targeting DAB2IP, sequence GACTCCAAACAGAAGATCATT (pLKO lentiviral vector)
- toxicity of shRNA vector [7]: exhibited toxicity

Molecule: C[C@@H](Oc1cc(-c2cnn(C3CCNCC3)c2)cnc1N)c1c(Cl)ccc(F)c1Cl [crizotinib]
- sensitivity to ALK inhibitors after restoration of Med12 [2]: re-sensitizes
- sensitivity to ALK inhibitors after restoration of SMARCE1 [2]: re-sensitizes
- resistance to ALK inhibitors on suppression of ARID1A or SMARCE1, colony formation [2]: confers drug resistance
- resistance to ALK inhibitors on suppression of MED12, colony formation [2]: confers drug resistance
- resistance to ALK inhibitors, colony formation [2]: confer resistance
- sensitivity to MET inhibitor after restoration of SMARCE1 [8]: restored the sensitivity
- sensitivity to MET inhibitor after restoration of SMARCE1 ([8]; listed as Crizotinib): re-sensitizes
- resistance to MET inhibitor on suppression of SMARCE1 ([8]; EBC-1 expressing shSMARCE1#1 and #2): conferred resistance
- sensitivity to MET inhibitor after restoration of SMARCE1 [9]: restored the sensitivity
- sensitivity to MET inhibitor after restoration of SMARCE1 ([9]; listed as Crizotinib): re-sensitizes
- resistance to MET inhibitor on suppression of ARID1A [9]: conferred resistance
- resistance to MET inhibitor on suppression of ARID1A ([9]; listed as Crizotinib): are resistance
- resistance to MET inhibitor on suppression of SMARCE1 ([9]; H1993 expressing shSMARCE1#1 and #2): conferred resistance

Molecule: COc1ccc(-c2ccc3c(N4CCOC[C@@H]4C)nc(N4CCOC[C@@H]4C)nc3n2)cc1CO [AZD8055]
- resistance on suppression of ARID1A, colony formation [10]: conferred resistance; also recorded: confers resistance
- resistance on suppression of ARID1A, colony formation [11]: conferred resistance; also recorded: confers resistance
- resistance on knockdown of ARID1A, colony formation [12]: conferred resistance
- phosphorylated AKT (p473-AKT) levels in the presence of inhibitor [13]: maintained higher levels
- phosphorylated S6RP (p235/236-S6RP) levels in the presence of inhibitor [13]: maintained higher levels
